Source: patent publication EP4782445A1, “CDK KINASE INHIBITOR AND USE THEREOF” (Abbisko Therapeutics Co., Ltd., priority 2023, dated 2025)

Tests used:
[1] = target: T1, CDK6/cyclin D3 (Homo sapiens, UniProt Q00534); experiment: In vitro biochemical kinase activity assay for CDK6/cyclin D3 (HTRF)
T1 construct: purchased Carna
Procedure: III. In Vitro Biochemical Kinase Activity Assay for CDK6/Cyclin D3
The inhibitory effects of the compounds of the present invention on CDK6/cyclin D3 kinase activity were determined using an HTRF assay. The experimental process was as follows: 1. The kinase reaction was carried out in a 384-well plate. 0.02 nM CDK6/cyclin D3 (Carna), 1 mM (or 100 µM) ATP, and 0.3 µM biotin-labeled substrate protein Rb-biotin (Cisbio) were incubated at 30°C for 60 min in a buffer system composed of 5 mM MgCl2, 1 mM DTT, and basal kinase buffer (Cisbio). 2. The detection solution (Cisbio, containing reagents that specifically recognize phosphorylated Rb and Rb-biotin proteins, respectively) was added. The plate was then sealed with a film (to protect from light and volatilization) and incubated at 25°C for 60 min. 3. The plate was transferred to an Envision plate reader to detect FRET signals. (The 665/615 ratio was calculated by reading the emission at 665 nm and 615 nM, respectively.) 4. The IC50 values were determined by analyzing the inhibition at varying compound concentrations using Model 205 in the XLfit software.

[2] = target: T2, CDK4/cyclin D3 (Homo sapiens, UniProt P11802); experiment: In vitro biochemical kinase activity assay for CDK4/cyclin D3 (HTRF)
T2 construct: purchased Carna
T2 sequence (P11802 whole entry): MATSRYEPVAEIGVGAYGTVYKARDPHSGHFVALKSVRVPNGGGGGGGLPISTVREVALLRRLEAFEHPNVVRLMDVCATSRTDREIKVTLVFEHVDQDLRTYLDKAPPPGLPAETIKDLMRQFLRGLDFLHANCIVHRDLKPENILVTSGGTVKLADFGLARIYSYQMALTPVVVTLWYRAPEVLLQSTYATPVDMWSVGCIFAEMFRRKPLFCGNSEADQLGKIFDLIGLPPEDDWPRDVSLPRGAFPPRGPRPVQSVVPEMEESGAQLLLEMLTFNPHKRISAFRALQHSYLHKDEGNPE
T2 sequence (P30281 whole entry partner): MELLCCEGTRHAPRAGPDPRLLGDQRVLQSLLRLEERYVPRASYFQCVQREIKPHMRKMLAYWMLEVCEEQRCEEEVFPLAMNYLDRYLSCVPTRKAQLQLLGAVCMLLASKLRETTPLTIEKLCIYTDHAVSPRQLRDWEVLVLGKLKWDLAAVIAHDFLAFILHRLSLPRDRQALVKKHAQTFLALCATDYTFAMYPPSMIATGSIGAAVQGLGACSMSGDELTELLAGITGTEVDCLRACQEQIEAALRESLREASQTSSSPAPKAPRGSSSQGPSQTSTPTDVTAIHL
Procedure: II. In Vitro Biochemical Kinase Activity Assay for CDK4/Cyclin D3
The inhibitory effects of the compounds of the present invention on CDK4/cyclin D3 kinase activity were determined using an HTRF assay. The experimental process was as follows: • 1. The kinase reaction was carried out in a 384-well plate. 4.9 nM CDK4/cyclin D3 (Carna), 1 mM (or 80 µM) ATP, and 0.3 µM biotin-labeled substrate protein Rb-biotin (Cisbio) were incubated at 30°C for 90 min in a buffer system composed of 50 mM MgCl2, 1 mM DTT, and basal kinase buffer (Cisbio). • 2. The detection solution (Cisbio, containing reagents that specifically recognize phosphorylated Rb and Rb-biotin proteins, respectively) was added. The plate was then sealed with a film (to protect from light and volatilization) and incubated at 25°C for 60 min. • 3. The plate was transferred to an Envision plate reader to detect FRET signals. (The 665/615 ratio was calculated by reading the emission at 665 nm and 615 nM, respectively.) • 4. The IC50 values were determined by analyzing the inhibition at varying compound concentrations using Model 205 in the XLfit software.

[3] = data marked with *: 1 mM ATP in Step 1
[4] = unmarked data: 100 µM ATP in Step 1
[5] = unmarked data: 80 µM ATP in Step 1

T1 sequence (Q00534 whole entry): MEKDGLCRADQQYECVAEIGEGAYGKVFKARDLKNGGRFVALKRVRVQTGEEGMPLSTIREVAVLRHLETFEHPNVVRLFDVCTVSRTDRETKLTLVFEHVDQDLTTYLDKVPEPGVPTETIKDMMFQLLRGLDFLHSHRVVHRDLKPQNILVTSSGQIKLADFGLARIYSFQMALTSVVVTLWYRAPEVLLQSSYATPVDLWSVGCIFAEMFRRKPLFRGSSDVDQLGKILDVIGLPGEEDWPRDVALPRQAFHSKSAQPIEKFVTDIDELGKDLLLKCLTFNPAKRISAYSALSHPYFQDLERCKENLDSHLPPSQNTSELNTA
T1 sequence (P30281 whole entry partner): as the sequence (P30281 whole entry partner) above

IC50 [1, 3] [µM] | IC50 [2, 3] [µM] | IC50 [1, 4] [µM] | IC50 [2, 5] [µM] | SMILES
0.0103 | 0.00135 |  |  | CC(C)c1c(C#Cc2nc(N[C@@H]3CCN(S(C)(=O)=O)C[C@H]3O)ncc2Cl)cnn1C [Example 33, (3R,4R)-4-((5-chloro-4-((5-isopropyl-1-methyl-1H-pyrazol-4-yl)ethynyl)pyrimidin-2-yl)amino)-1-(methanesulfonyl)piperidin-3-ol]
2.12 | 0.172 |  |  | CC(C)n1c(C#Cc2nc(N[C@@H]3CCOC[C@H]3O)ncc2Cl)cnc1CN1CC(C)(O)C1 [Example 38, 1-((5-((5-chloro-2-(((3 S,4R)-3-hydroxytetrahydro-2H-pyran-4-yl)amino)pyrimidin-4-yl)ethynyl)-1-isopropyl-1H-imidazol-2-yl)methyl)-3-methylazetidin-3-ol]
 |  | 0.164 | 0.059 | CC(C)c1nn(C)cc1C#Cc1nc(N[C@@H]2CCOC[C@H]2O)ncc1Cl [Example 54, (3 S,4R)-4-((5-chloro-4-((3-isopropyl-1-methyl-1H-pyrazol-4-yl)ethynyl)pyrimidin-2-yl)amino)tetrahydro-2H-pyran-3-ol]
 |  | 0.0383 | 0.00964 | CC(C)c1c(C#Cc2nc(Nc3ccc(C4CCN(C)CC4)cn3)ncc2F)cnn1C [Example 59, 5-fluoro-4-((5-isopropyl-1-methyl-1H-pyrazol-4-yl)ethynyl)-N-(5-(1-methylpiperidin-4-yl)pyridin-2-yl)pyrimidin-2-amine]
 |  | 0.162 | 0.0476 | CC(C)n1c(C#Cc2nc(N[C@@H]3CCNC[C@H]3O)ncc2Cl)cnc1C(C)(C)O [Example 60, (3R,4R)-4-((5-chloro-4-((2-(2-hydroxypropan-2-yl)-1-isopropyl-1H-imidazol-5-yl)ethynyl)pyrimidin-2-yl)amino)piperidin-3-ol]
 |  | 0.132 | 0.0132 | CC(C)c1c(C#Cc2nc(N[C@@H]3CCOC[C@H]3O)ncc2Cl)cnn1CC(C)(C)O [Example 64, (3 S,4R)-4-((5-chloro-4-((1-(2-hydroxy-2-methylpropyl)-5-isopropyl-1H-pyrazol-4-yl)ethynyl)pyrimidin-2-yl)amino)tetrahydro-2H-pyran-3-ol]
 |  | 1.2 | 0.119 | CC(C)c1nn(CC(C)(C)O)cc1C#Cc1nc(N[C@@H]2CCOC[C@H]2O)ncc1Cl [Example 65, (3 S,4R)-4-((5-chloro-4-((1-(2-hydroxy-2-methylpropyl)-3-isopropyl-1H-pyrazol-4-yl)ethynyl)pyrimidin-2-yl)amino)tetrahydro-2H-pyran-3-ol]
 |  | 0.0019 | 0.00103 | CC(C)n1c(C#Cc2nc(Nc3ccc(N4CCN(C)CC4)cn3)ncc2Cl)cnc1C(C)(C)O [Example 66, 2-(5-((5-chloro-2-((5-(4-methylpiperazin-1-yl)pyridin-2-yl)amino)pyrimidin-4-yl)ethynyl)-1-isopropyl-1H-imidazol-2-yl)propan-2-ol]
 |  | 0.00588 | 0.00117 | CCN1CCN(C(=O)c2ccc(Nc3ncc(Cl)c(C#Cc4cnc(C(C)(C)O)n4C(C)C)n3)nc2)CC1 [Example 67, (6-((5-chloro-4-((2-(2-hydroxypropan-2-yl)-1-isopropyl-1H-imidazol-5-yl)ethynyl)pyrimidin-2-yl)amino)pyridin-3-yl)(4-ethylpiperazin-1-yl)methanone]
2.6 | 0.0767 |  |  | CC(C)n1c(C#Cc2nc(N[C@@H]3CCOC[C@H]3O)ncc2Cl)cnc1C1CCCN1 (stereo partly drawn) [Example 68, (3 S,4R)-4-((5-chloro-4-((1-isopropyl-2-(pyrrolidin-2-yl)-1H-imidazol-5-yl)ethynyl)pyrimidin-2-yl)amino)tetrahydro-2H-pyran-3-ol]
0.0384 | 0.00471 |  |  | CCN1CCN(Cc2ccc(Nc3ncc(Cl)c(C#Cc4cnn(C)c4C(C)C)n3)nc2)CC1 [Example 69, 5-Chloro-N-(5-((4-ethylpiperazin-1-yl)methyl)pyridin-2-yl)-4-((5-isopropyl-1-methyl-1H-pyrazol-4-yl)ethynyl)pyrimidin-2-amine]
0.131 | 0.0151 |  |  | CCN1CCN(Cc2ccc(Nc3ncc(F)c(C#Cc4cnn(C)c4C(C)C)n3)nc2)CC1 [Example 70, N-(5-((4-ethylpiperazin-1-yl)methyl)pyridin-2-yl)-5-fluoro-4-((5-isopropyl-1-methyl-1H-pyrazol-4-yl)ethynyl)pyrimidin-2-amine]
0.00631 | 0.00252 |  |  | CCN1CC2(C1)CN(c1ccc(Nc3ncc(Cl)c(C#Cc4cnc(C(C)(C)O)n4C(C)C)n3)nc1)C2 [Example 71, 2-(5-((5-chloro-2-((5-(6-ethyl-2,6-diazaspiro[3.3]heptan-2-yl)pyridin-2-yl)amino)pyrimidin-4-yl)ethynyl)-1-isopropyl-1H-imidazol-2-yl)propan-2-ol]
0.263 | 0.017 |  |  | CC(C)n1c(C#Cc2nc(N[C@@H]3CCOC[C@H]3O)ncc2Cl)cnc1CN1[C@H](C)COC[C@@H]1C [Example 72, (3S,4R)-4-((5-chloro-4-((2-(((3R,5S)-3,5-dimethylmorpholino)methyl)-1-isopropyl-1H-imidazol-5-yl)ethynyl)pyrimidin-2-yl)amino)tetrahydro-2H-pyran-3-ol]
0.0267 | 0.00643 |  |  | CC(C)n1c(C#Cc2nc(Nc3ccc(C4CCN(C)CC4)cn3)ncc2F)cnc1C(C)(C)O [Example 73, 2-(5-((5-fluoro-2-((5-(1-methylpiperidin-4-yl)pyridin-2-yl)amino)pyrimidin-4-yl)ethynyl)-1-isopropyl-1H-imidazol-2-yl)propan-2-ol]
0.341 | 0.0201 |  |  | CC(C)n1c(C#Cc2nc(N[C@@H]3CCOC[C@H]3O)ncc2Cl)cnc1CN1[C@@H](C)COC[C@@H]1C [Example 74, (3 S,4R)-4-((5-chloro-4-((2-(((3 S,5 S)-3,5-dimethylmorpholino)methyl)-1-isopropyl-1H-imidazol-5-yl)ethynyl)pyrimidin-2-yl)amino)tetrahydro-2H-pyran-3-ol]
1.16 | 0.0212 |  |  | CC(C)n1c(C#Cc2nc(N[C@@H]3CCOC[C@H]3O)ncc2Cl)cnc1CN1CCC[C@H](O)C1 [Example 75, (S)-1-((5-((5-chloro-2-(((3 S,4R)-3-hydroxytetrahydro-2H-pyran-4-yl)amino)pyrimidin-4-yl)ethynyl)-1-isopropyl-1H-imidazol-2-yl)methyl)piperidin-3-ol]
 | 2.86 |  |  | CCN1CC2(C1)CN(c1ccc(Nc3ncc(F)c(C#Cc4cnn(C)c4C(C)(C)O)n3)nc1)C2 [Example 83, 2-(4-((2-((5-(6-ethyl-2,6-diazaspiro[3.3]heptan-2-yl)pyridin-2-yl)amino)-5-fluoropyrimidin-4-yl)ethynyl)-1-methyl-1H-pyrazol-5-yl)propan-2-ol]
 | 3.29 |  |  | CC(C)n1c(C#Cc2nc(N[C@@H]3CCC[C@@H](C(=O)N(C)C)C3)ncc2Cl)cnc1C(C)(C)O [Example 96, (1R,3R)-3-((5-chloro-4-((2-(2-hydroxypropan-2-yl)-1-isopropyl-1H-imidazol-5-yl)ethynyl)pyrimidin-2-yl)amino)-N,N-dimethylcyclohexane-1-carboxamide]
 | 1.04 |  |  | CC(C)n1c(C#Cc2nc(N[C@@H]3CCOC[C@H]3O)ncc2F)cnc1CN1CCC[C@H](O)C1 [Example 102, (S)-1-((5-((5-fluoro-2-(((3 S,4R)-3-hydroxytetrahydro-2H-pyran-4-yl)amino)pyrimidin-4-yl)ethynyl)-1-isopropyl-1H-imidazol-2-yl)methyl)piperidin-3-ol]
